{"source": "patent US20070218002A1", "about": "“Method for Detecting Alzheimer's Disease and other Forms of Dementia, and Measuring Their Progression” (priority 2004, published 2007)", "system": "glucose metabolism", "experiment": "[F-18]FDG PET, relative standardized uptake value", "type": "in vivo, human", "conditions": "normalized to motor cortex", "method": "All scans were performed with ECAT HR or ECAT HR+ scanners (Siemens-CTI, Knoxville, Tenn.). The subjects were in the supine position with the imaging plane parallel to the orbito-meatal line and with their eyes open and ears unoccluded. A 20 min transmission scan was performed to correct PET data for radiation attenuation. 320-550 MBq of a PET tracer was injected as a bolus injection via the in-dwelling venous catheter, and the consecutive dynamic head PET scans were performed for 1 hour with [F-18]FDG or for 2 hours with [F-18]MPPF or with [F-18]FDDNP.\nAll PET scans were decay corrected and reconstructed using filtered-back projection (Hann filter, 5 mm FWHM) with scatter and attenuation correction. The resulting images contained either 47 contiguous slices with 3.4 mm plane-to-pane separation (EXACT HR) or 63 contiguous slices with the plane-to-plane separation of 2.42 mm (EXACT HR+).\nThe dynamic [F-18]FDG PET images were summed (frames 30-60min) and the resulting image was used for the following analysis: ROIs were drawn bilaterally on transaxially oriented images on the gray matter signal in the frontal lobe, parietal lobe, lateral temporal lobe, and medial temporal lobe. In addition, one ROI was drawn on the posterior cingulated gyrus. ROIs were also drawn bilaterally on the motor cortex as a reference region. Values for each ROI were extracted and relative standardized uptake values were calculated for each region separately. The average of both ROIs from the same region was divided by the average of ROI values for the motor cortex. In a similar way, the ROI value for the posterior cingulated gyrus was normalized by the average value for motor cortex. Finally the global [F-18]FDG SUVR index was calculated for the parietal, medial temporal, and lateral temporal lobes."}
{"smiles": "OC[C@H]1OC(O)[C@H]([18F])[C@@H](O)[C@@H]1O", "note": "(stereo partly drawn) [[F-18]FDG, 2-deoxy-2-[F-18]fluoro-D-glucose]", "values": [{"measurement": "FDG mean SUVR ± 1 SD, Frontal Lobe", "setting": "AD group", "value": "0.79 ± 0.07"}, {"measurement": "FDG mean SUVR ± 1 SD, Global", "setting": "AD group", "value": "0.66 ± 0.04"}, {"measurement": "FDG mean SUVR ± 1 SD, Lateral Temporal Lobe", "setting": "AD group", "value": "0.66 ± 0.07"}, {"measurement": "FDG mean SUVR ± 1 SD, Medial Temporal Lobe", "setting": "AD group", "value": "0.66 ± 0.04"}, {"measurement": "FDG mean SUVR ± 1 SD, Parietal Lobe", "setting": "AD group", "value": "0.67 ± 0.09"}, {"measurement": "FDG mean SUVR ± 1 SD, Posterior Cingulate Gyrus", "setting": "AD group", "value": "0.79 ± 0.11"}, {"measurement": "FDG mean SUVR ± 1 SD, Frontal Lobe", "setting": "CTRL group", "value": "0.95 ± 0.08"}, {"measurement": "FDG mean SUVR ± 1 SD, Global", "setting": "CTRL group", "value": "0.80 ± 0.04"}, {"measurement": "FDG mean SUVR ± 1 SD, Lateral Temporal Lobe", "setting": "CTRL group", "value": "0.86 ± 0.06"}, {"measurement": "FDG mean SUVR ± 1 SD, Medial Temporal Lobe", "setting": "CTRL group", "value": "0.73 ± 0.02"}, {"measurement": "FDG mean SUVR ± 1 SD, Parietal Lobe", "setting": "CTRL group", "value": "0.89 ± 0.06"}, {"measurement": "FDG mean SUVR ± 1 SD, Posterior Cingulate Gyrus", "setting": "CTRL group", "value": "1.05±0.09"}, {"measurement": "FDG mean SUVR ± 1 SD, Posterior Cingulate Gyrus", "setting": "CTRL group, listed as FDG", "value": "1.05 ± 0.09"}, {"measurement": "FDG mean SUVR ± 1 SD, Frontal Lobe", "setting": "MCI group", "value": "0.90 ± 0.02"}, {"measurement": "FDG mean SUVR ± 1 SD, Global", "setting": "MCI group", "value": "0.77 ± 0.04"}, {"measurement": "FDG mean SUVR ± 1 SD, Lateral Temporal Lobe", "setting": "MCI group", "value": "0.81 ± 0.05"}, {"measurement": "FDG mean SUVR ± 1 SD, Medial Temporal Lobe", "setting": "MCI group", "value": "0.69 ± 0.03"}, {"measurement": "FDG mean SUVR ± 1 SD, Parietal Lobe", "setting": "MCI group", "value": "0.84 ± 0.05"}, {"measurement": "FDG mean SUVR ± 1 SD, Posterior Cingulate Gyrus", "setting": "MCI group", "value": "0.89±0.06"}, {"measurement": "FDG mean SUVR ± 1 SD, Posterior Cingulate Gyrus", "setting": "MCI group, listed as FDG", "value": "0.89 ± 0.06"}]}
